Results as given in PMC9540877, “Clinical Formulation Bridging of Gefapixant, a P2X3‐Receptor Antagonist, for the Treatment of Chronic Cough” (Clinical Pharmacology in Drug Development, 2022).

What was measured:
[1] = tested on: organic anion transporter P1B1; parameters: method as in PMID 34821075; details: twice-daily gefapixant 45 mg; cited from earlier work
[2] = cited from earlier work
[3] = parameters: method as in PMID 35248186; details: patients with RCC or UCC, COUGH-1 and COUGH-2; cited from earlier work
MATE1/2K = details: cited from earlier work
[4] = Safety and tolerability in studies 1 to 4; format: in vivo, human
Protocol: Safety and tolerability for all studies were determined using clinical assessments, including physical examinations, vital signs, standard laboratory tests, 12‐lead electrocardiograms, and adverse events (AEs).

COc1cc(C(C)C)c(Oc2cnc(N)nc2N)cc1S(N)(=O)=O [gefapixant, Gefapixant]
effect on the pharmacokinetics of pitavastatin [1]: no effect
excreted metabolites, share of the gefapixant dose [2]: 14%
terminal half-life (t1/2) [2]: ≈ 7 hours
24-hour cough frequency [3]: significantly reduced
effect of inhibiting MATE1/2K via pyrimethamine on gefapixant exposure (MATE1/2K): does not meaningfully increase
serious AEs ([4]; all 4 studies): no serious AEs
severity of all AEs ([4]; all 4 studies): mild or moderate
most commonly reported AEs ([4]; studies 1 and 2): taste related
most common AE ([4]; studies 3 and 4): headache
